Test results published in patent US20160016989A1, “Synthetic Polymers Containing Amino Acid Side Chains” (CHIMEROCHEM LLC, priority 2013, published 2016).

Key:
[1] = tested on: Histidine specific antibody (polyclonal IgG ab6442 from ABCAM); experiment: Native polyacrylamide gel shift with Histidine specific antibody; format: binding; conditions: native 12% polyacrylamide gel; compared to 20-mer polydT controls
Method: Example using monomer to produce a H-tag. Six His side chain monomers (H) as described in example 1 c2 are added during oligonucleotide synthesis to the 5′ position of a 20mer polydT, such that the final sequence is 5′HHH HHH TTT TTT TTT TTT TTT TTT TT3′. H is used at a concentration of 0.1M in acetonitrile for synthesis. The chimeric polymer is synthesized according to manufacturer's recommendations for the ABI Expedite synthesizer. After deprotection the H-tagged polydT was incubated with Histidine specific antibody (polyclonal IgG ab6442 from ABCAM). A control sample of 20-mer polydT was also incubated with the Histidine specific antibody. A native 12% polyacrylamide (20:1 acrylamide:bis) was loaded with 4 samples: 20-mer polydT, 20-mer polydT+Histidine specific antibody, His-tagged 20-mer polydT, His-tagged 20-mer polydT+Histidine specific antibody.

[2] = tested on: VMCs from the left anterior descending, circumflex, and right coronary arteries; experiment: Calcium signal (fluo 3 fluorescence) and contractility of single coronary artery VMCs; format: cell-based, rhesus monkeys; conditions: images at 1 minute and subsequent time points
Text: Single VMCs from the left anterior descending, circumflex, and right coronary arteries of adult rhesus monkeys are isolated and studied both as freshly dispersed and as primary cultures. The short-term primary cultured cells (never passaged) maintain the characteristics of the source tissue for 2 to 3 weeks, including contraction, relaxation, receptors, and membrane electrical properties. VMCs are dissociated with collagenase and protease enzymes in a potassium glutamate solution (KG) that prevents loading with Na^+, Ca2^+, or Cl^− and results in a high proportion of viable, contracting cells (Miyagawa et al, Am J Physiol 272:H2645-2654, 1997; Hermsmeyer et, Art Thromb Vasc Biol, 24:955-961, 2004). […]
Freshly dispersed or primary cultured VMCs on glass coverslips are placed in a chamber of laminar flow design on an Axiovert inverted fluorescence microscope and observed with a Zeiss Plan Neofluar 25X/0.80 water immersion objective. Fluorescence intensity is measured with high sensitivity calibrated video sensor and recorded digitally via computer acquisition and management program. […] Fluorescent images are taken at 1 minute and subsequent time points from which light intensity is equated to changes in calcium signal (fluorescence) and cell contractility.

Row | Molecule | gel shift on addition of the Histidine specific antibody [1] | calcium signal (fluorescence) ([2]; individual VMC loaded with 3 μM fluo 3) | cell contractility ([2]; individual VMC)
1 | 5′HHH HHH TTT TTT TTT TTT TTT TTT TT3′ [His-tagged 20-mer polydT] | gel shift |  | 
2 | NC(=O)CC[C@@H]1NC(=O)[C@H](Cc2ccccc2)NC(=O)[C@H](Cc2ccc(O)cc2)NC(=O)[C@@H](N)CSSC[C@@H](C(=O)N2CCC[C@H]2C(=O)N[C@@H](CCCN=C(N)N)C(=O)NCC(N)=O)NC(=O)[C@H](CC(N)=O)NC1=O [arginine vasopressin] |  | affect | affect
